Here are results for 45 compounds from the Kinase Knowledgebase extract (Sharma et al. 2016).

Usually IC50 stands for the concentration that inhibits the measured activity by half. Read a low IC50 as greater potency in that assay. As usually defined, the Ki is a dissociation constant, usually derived from enzyme kinetics or from competition with a known ligand. Higher therefore signals weaker binding.

Where “and” joins values, the source holds several entries; their conditions need not be identical. Equal entries are not always repeated. Where only a bound is given, the exact number is not on record here.

EGFR (human), sequence (P00533 whole entry, looked up): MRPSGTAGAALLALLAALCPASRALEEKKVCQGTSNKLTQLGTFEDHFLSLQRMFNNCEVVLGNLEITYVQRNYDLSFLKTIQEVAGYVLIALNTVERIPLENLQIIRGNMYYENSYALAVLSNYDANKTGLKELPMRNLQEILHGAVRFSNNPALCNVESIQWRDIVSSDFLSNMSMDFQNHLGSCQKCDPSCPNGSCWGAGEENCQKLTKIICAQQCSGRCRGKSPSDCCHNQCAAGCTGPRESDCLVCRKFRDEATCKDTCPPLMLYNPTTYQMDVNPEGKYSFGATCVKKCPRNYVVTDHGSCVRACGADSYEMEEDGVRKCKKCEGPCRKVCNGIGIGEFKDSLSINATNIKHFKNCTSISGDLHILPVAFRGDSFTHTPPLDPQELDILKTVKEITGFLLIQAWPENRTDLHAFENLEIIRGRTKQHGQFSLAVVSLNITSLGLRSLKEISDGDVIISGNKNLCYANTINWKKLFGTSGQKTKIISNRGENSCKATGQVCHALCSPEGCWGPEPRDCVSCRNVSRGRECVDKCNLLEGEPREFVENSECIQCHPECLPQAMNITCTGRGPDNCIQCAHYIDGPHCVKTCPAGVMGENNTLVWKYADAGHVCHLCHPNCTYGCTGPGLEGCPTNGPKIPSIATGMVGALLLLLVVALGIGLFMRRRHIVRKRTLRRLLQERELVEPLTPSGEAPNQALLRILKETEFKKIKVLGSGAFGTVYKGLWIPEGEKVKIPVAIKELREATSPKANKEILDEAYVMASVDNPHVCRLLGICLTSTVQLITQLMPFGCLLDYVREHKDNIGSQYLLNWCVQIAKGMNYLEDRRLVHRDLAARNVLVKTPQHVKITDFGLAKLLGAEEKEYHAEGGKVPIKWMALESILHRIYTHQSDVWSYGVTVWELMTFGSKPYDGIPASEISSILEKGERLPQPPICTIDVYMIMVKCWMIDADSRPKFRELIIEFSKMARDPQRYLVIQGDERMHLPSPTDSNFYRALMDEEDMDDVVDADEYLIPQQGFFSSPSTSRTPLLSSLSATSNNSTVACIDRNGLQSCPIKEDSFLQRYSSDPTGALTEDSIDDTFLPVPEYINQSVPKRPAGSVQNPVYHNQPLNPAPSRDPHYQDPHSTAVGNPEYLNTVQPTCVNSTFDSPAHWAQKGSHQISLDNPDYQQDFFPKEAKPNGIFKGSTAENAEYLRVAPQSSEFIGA

In the first experiment the target is PIK3CB;PIK3CG;PIK3CD;PIK3CA (human) (UniProt P48736). The experiment is described as follows: Inhibition of PIK3 Kinase Activity.
The compound `CC(=O)N1CCN(c2cc(N3CCOCC3)nc(-c3cccc(CO)c3)n2)CC1` displayed an IC50 of 300 nM.

The compound `O=C(C1CNCCO1)N1CCN(c2cc(N3CCOCC3)nc(-c3cccc(CO)c3)n2)CC1` (configuration not stated) returned an IC50 of 1000 nM. On the same count and under the same terms, then `O=C(N1CC=C(c2cc(N3CCOCC3)nc(-c3cccc(CO)c3)n2)CC1)N1CCNCC1`, with 500 nM; and `O=C(C1CCN(c2cc(N3CCOCC3)nc(-c3cccc(CO)c3)n2)CC1)N1CCOCC1`, with 1500 nM.

In turn, `O=C(C1COCCN1)N1CC=C(c2cc(N3CCOCC3)nc(-c3cccc(CO)c3)n2)CC1` (configuration not stated) had an IC50 of 1000 nM. On to `CC(C)C(=O)N1CC=C(c2cc(N3CCOCC3)nc(-c3cccc(CO)c3)n2)CC1`, for which the IC50 was 1000 nM. `CS(=O)(=O)N1CC=C(c2cc(N3CCOCC3)nc(-c3cccc(CO)c3)n2)CC1` had a half-maximal inhibitory concentration (IC50) of 500 nM. Still for that read-out and setting: the value for `O=C(NC1CCNCC1)C1CCN(c2cc(N3CCOCC3)nc(-c3cccc(CO)c3)n2)CC1` was 1000 nM; that for `O=C(CCc1cccnc1)N1CCN(c2cc(N3CCOCC3)nc(-c3cccc(CO)c3)n2)CC1` was 500 nM; that for `Cn1ccnc1C(=O)N1CCN(c2cc(N3CCOCC3)nc(-c3cccc(CO)c3)n2)CC1` was 500 nM.

The target in the next experiment is ROCK2 (human) (UniProt O75116). Description: Assessment of ROCK2 Kinase Activity.
ROCK2 (human), sequence (O75116 whole entry, looked up): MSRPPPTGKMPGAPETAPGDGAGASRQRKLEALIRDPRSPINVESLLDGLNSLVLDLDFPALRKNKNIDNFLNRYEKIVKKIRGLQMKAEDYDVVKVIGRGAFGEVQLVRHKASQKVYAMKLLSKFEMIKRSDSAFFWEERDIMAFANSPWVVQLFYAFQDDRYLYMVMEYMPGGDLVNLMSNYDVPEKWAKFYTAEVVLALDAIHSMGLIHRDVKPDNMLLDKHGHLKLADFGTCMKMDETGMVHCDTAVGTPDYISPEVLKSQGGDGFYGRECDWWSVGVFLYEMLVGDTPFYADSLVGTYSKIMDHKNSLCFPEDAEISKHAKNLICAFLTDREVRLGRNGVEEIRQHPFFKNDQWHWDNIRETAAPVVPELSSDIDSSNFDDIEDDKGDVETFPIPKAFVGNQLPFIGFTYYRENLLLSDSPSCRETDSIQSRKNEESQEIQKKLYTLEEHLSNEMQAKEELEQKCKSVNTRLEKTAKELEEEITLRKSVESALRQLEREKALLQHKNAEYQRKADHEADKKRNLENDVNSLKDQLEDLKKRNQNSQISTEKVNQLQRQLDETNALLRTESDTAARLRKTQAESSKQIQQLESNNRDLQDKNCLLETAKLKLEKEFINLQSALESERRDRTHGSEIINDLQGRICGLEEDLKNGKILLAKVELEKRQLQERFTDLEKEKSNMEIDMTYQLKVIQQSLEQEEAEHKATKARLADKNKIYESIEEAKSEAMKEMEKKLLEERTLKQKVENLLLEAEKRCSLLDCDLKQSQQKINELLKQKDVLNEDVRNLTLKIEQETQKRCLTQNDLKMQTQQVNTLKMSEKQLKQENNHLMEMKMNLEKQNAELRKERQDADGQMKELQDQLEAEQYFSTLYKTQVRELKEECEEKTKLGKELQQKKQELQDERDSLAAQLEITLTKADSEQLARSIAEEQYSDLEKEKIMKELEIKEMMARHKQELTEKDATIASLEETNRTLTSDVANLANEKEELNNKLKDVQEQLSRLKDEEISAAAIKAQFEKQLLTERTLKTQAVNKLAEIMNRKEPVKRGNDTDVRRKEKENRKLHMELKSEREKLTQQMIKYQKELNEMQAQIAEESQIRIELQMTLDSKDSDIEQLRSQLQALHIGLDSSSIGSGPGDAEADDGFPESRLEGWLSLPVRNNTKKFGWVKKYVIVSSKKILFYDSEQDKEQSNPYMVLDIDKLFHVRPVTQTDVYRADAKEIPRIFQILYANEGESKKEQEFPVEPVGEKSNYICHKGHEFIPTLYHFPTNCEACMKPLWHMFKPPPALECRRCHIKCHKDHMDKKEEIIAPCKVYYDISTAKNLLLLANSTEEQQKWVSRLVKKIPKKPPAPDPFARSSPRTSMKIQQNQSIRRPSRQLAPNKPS
Turning to `CC1CN(c2ccnc(N)n2)c2ccc([N+](=O)[O-])cc21` (configuration not stated), the IC50 is 400 nM. Still for that read-out and setting: then `Nc1nc(Nc2ccc(Oc3ccnc4[nH]cc(Cl)c34)c(F)c2)cc(C(F)(F)F)n1`, with 4 nM; and `C[C@@H](NC(=O)c1cccc2c1ccn2-c1ccnc(N)n1)c1ccccc1`, with 60 nM; and `N#Cc1c[nH]c2nccc(Oc3ccc(Nc4cc(C(F)(F)F)nc(N)n4)cc3F)c12`, with 2 nM.

Consider `CCC(C)=O.c1n[nH]cc1-c1cnc2ccc(N3CCCNCC3)nn12`, for which the IC50 stood at 6700 nM. On the same count and under the same terms, the value for `COc1cccc(CNC(=O)c2cccc3c2ccn3-c2ccnc(N)n2)c1` was 70 nM; that for `CC1CN(c2ccnc(N)n2)c2ccc(Cl)cc21` (configuration not stated) was 500 nM; that for `CC1CN(c2ccnc(N)n2)c2ccc(F)cc21` (configuration not stated) was 200 nM. `Clc1cnc2ccc(NCCCN3CCOCC3)nn12` displayed an IC50 of 71000 nM.

The target in a further experiment is PIK3CG (human) (UniProt P48736). Description: Assessment of PIK3CG Kinase Activity.
`Nc1nc2ccc(-c3cncc(NS(=O)(=O)c4cccc5ccccc45)c3)cn2n1` showed an IC50 of 7.94 nM. The same measure, in the same setting: the value for `CC(=O)Nc1nc2ccc(-c3cccc(-c4nc(C)no4)c3)cn2n1` was more than 20000 nM.

The next experiment deals with PIK3CD (Human) (UniProt O00329). Description: Assessment of PIK3CD Kinase Activity.
PIK3CD (Human), sequence (O00329 whole entry, looked up): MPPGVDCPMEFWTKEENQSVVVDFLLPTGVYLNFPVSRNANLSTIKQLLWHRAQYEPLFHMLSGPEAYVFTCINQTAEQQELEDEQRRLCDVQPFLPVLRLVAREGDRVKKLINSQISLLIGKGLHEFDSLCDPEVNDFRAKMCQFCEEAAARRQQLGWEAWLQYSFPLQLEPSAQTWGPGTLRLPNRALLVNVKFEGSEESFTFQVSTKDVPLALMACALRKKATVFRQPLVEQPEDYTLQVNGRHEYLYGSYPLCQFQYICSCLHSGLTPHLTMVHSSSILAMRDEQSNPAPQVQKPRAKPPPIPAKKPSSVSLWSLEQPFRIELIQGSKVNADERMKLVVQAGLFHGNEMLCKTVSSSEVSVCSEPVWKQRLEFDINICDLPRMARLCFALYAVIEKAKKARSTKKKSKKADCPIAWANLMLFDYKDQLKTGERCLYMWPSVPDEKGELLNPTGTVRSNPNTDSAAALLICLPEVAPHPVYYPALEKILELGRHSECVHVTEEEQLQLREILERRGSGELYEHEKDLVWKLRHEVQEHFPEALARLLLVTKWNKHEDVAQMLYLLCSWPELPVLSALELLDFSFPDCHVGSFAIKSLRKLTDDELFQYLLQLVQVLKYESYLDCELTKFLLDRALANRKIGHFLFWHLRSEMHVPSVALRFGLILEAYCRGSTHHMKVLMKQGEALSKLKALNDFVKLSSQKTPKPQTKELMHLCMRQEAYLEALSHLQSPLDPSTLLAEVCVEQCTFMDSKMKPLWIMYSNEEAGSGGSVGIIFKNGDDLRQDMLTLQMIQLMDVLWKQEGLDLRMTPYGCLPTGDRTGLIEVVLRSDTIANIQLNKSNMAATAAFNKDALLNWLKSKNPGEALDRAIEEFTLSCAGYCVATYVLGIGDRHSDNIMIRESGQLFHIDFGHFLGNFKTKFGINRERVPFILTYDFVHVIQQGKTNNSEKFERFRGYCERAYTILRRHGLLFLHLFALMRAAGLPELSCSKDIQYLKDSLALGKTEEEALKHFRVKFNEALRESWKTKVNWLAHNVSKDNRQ
Consider `Nc1nc2ccc(-c3cncc(NS(=O)(=O)c4cccc5ccccc45)c3)cn2n1`, for which the IC50 worked out at 126 nM. For `C[C@H](Nc1ncnc(N)c1C#N)c1nc2ccc(F)cc2c(C(=O)O)c1-c1ccccc1`, the Ki worked out at 74.2 nM. `C[C@H](Nc1ncnc(N)c1C(N)=O)c1nc2ccc(F)cc2c(C(=O)O)c1-c1ccccc1` came in with a Ki of 7.16 nM. For the compound `CC(=O)Nc1nc2ccc(-c3cccc(-c4nc(C)no4)c3)cn2n1`, the IC50 is more than 100000 nM. With `C[C@H](Nc1ncnc(N)c1C#N)c1nc2ccc(F)cc2c(C#N)c1-c1ccccc1`, the Ki was 2.76 nM and 1.33 nM.

The target of the next experiment is PIK3CA (human) (UniProt P42336). Description: Assessment of Growth Inhibition of U937 Cells.
`NCCN1C(=O)SC(=CCCc2ccc([N+](=O)[O-])cc2)C1=O`: the IC50 is more than 30000 nM.

`NCCN1C(=O)SC(CCCc2ccccc2)C1=O` (configuration not stated): the IC50 is more than 30000 nM.

Consider `O=C(O)N1C(=O)SC(=CCCc2ccccc2)C1=O`, for which the IC50 was more than 30000 nM. On the same count and under the same terms, the value for `O=C1SC(=CCCc2ccccc2)C(=O)N1CN1CCOCC1` was more than 30000 nM. With `NCCN1C(=O)SC(=CCCc2cccnc2)C1=O`, the IC50 was more than 30000 nM. `NCCN1C(=O)c2ccc(Cc3ccccc3)cc2C1=O` had an IC50 of more than 30000 nM. As for `CS(=O)(=O)Nc1ccc(CCC=C2SC(=O)N(CCN)C2=O)cc1`, the IC50 was more than 30000 nM. With `CCCC=C1SC(=O)N(CCN)C1=O`, the IC50 was more than 30000 nM. On the same count and under the same terms, the value for `NCCN1C(=O)SC(=CCCc2ccc(S(N)(=O)=O)cc2)C1=O` was more than 30000 nM.

The target in a further experiment is EGFR (UniProt P00533).
EGFR, sequence (P00533 whole entry, looked up): as the sequence (P00533 whole entry, looked up) above
Experiment: not given
As to `CC1=CCC[C@H]2[C@](C)(CC3=C(O)C(=O)C=C(N[C@H](C(=O)O)C(C)C)C3=O)[C@@H](C)CC[C@]12C`, the IC50 came out at 250000 nM.

`CC1=CCC[C@H]2[C@](C)(CC3=C(N[C@@H](CO)C(=O)O)C(=O)C=C(N[C@@H](CO)C(=O)O)C3=O)[C@@H](C)CC[C@]12C` registered an IC50 of more than 400000 nM. `CC1=CCC[C@H]2[C@](C)(CC3=C(O)C(=O)C=C(N[C@H](CO)C(=O)O)C3=O)[C@@H](C)CC[C@]12C` came in with a 50% inhibitory concentration (IC50) of more than 400000 nM.

A further experiment has as its target EGFR (human) (UniProt P00533).
Experiment: not given
As for `COc1cc2ncnc(NS(=O)(=O)c3ccccc3C#N)c2cc1OC`, the IC50 is not above 1000 nM. Same read-out and setting: the value for `COc1cc2ncnc(NS(=O)(=O)c3ccc(Br)cc3)c2cc1OC` was not above 1000 nM; that for `COc1cc2ncnc(NS(=O)(=O)c3ccc(Cl)cc3)c2cc1OC` was not above 1000 nM; that for `COc1cc2ncnc(NS(=O)(=O)c3ccccc3Br)c2cc1OC` was not above 1000 nM.

`COc1ccc(S(=O)(=O)Nc2ncnc3cc(OC)c(OC)cc23)cc1` yielded an IC50 not above 1000 nM. Compound `COc1cc2ncnc(NS(=O)(=O)c3ccccc3I)c2cc1OC` showed an IC50 not above 1000 nM.

In turn, `COc1cc2ncnc(NS(=O)(=O)c3ccccc3Cl)c2cc1OC` gave an IC50 not above 1000 nM. Still for that read-out and setting: the value for `COc1cc2ncnc(NS(=O)(=O)c3cccc(Cl)c3)c2cc1OC` was not above 1000 nM; that for `COc1cc2ncnc(NS(=O)(=O)c3ccc(C)cc3)c2cc1OC` was not above 1000 nM.
